A short description of data set [1]: Pharmacokinetic study in greyhound dogs, testosterone plasma concentrations after oral administration. The class given is in vivo. The following applies: fed state. As to the method:
For the dog studies, female greyhound dogs were held in a large animal research facility for at least 5 days prior to the commencement of studies. The dogs were allowed to acclimatise for at least 4 days prior to commencing the study. The dogs were fasted for 12 h up to 30 min prior to drug administration. For the fed state studies (n=4 for TU or Compound 13), dogs received 680 g of standard commercial dog food containing 5% fat min prior to drug administration. In the fasted study (n=1 for Compound 13), the dog remained fasted until after 4 h post-dose. Water was available ad libitum throughout the study for all dogs. On the study day, a 20 gauge intravenous catheter was inserted into a cephalic vein to allow blood sampling. The dogs were free to move around (not restrained) after cannulation. For the fed state studies, Andriol Testocaps (the commercial TU product) or Compound 13 was given to the dogs. Andriol Testocaps were supplied by Merck Sharp & Dohme (Australia) Pty Limited and were formulated as soft gelatin capsule containing a 12.0% (w/w) solution of TU in lauroglycol FCC/castor oil [40:60% (w/w)] with the individual capsule composition being 40 mg of TU, lauroglycol FCC, castor oil, gelatin, glycerol, and sunset yellow (E110). Compound 13 was prepared in a long-chain lipid based self-emulsifying drug delivery system (SEDDS) that consisted of 30.5% w/w soybean oil, 30.5% w/w Maisine 35-1, 31.6% w/w Cremophor EL and 7.4% w/w ethanol. Formulations were filled into hard gelatin capsules. Two capsules of Andriol Testocaps containing 80 mg TU or two capsules of Compound 13 containing a total dose of 90 mg Compound 13 dissolved in 2 g of the SEDDS formulation were administrated to the fed greyhound dog by placing the capsules as far posterior to the pharynx as possible, closing the mouth and rubbing the throat to stimulate swallowing. Subsequently 50 mL of water was administered orally via a syringe. Two capsules of Compound 13 formulation were also administrated to the fasted dogs for fasted state studies. After oral administration, blood samples (approx. 3 mL each) were taken via the cephalic vein cannula from 5 min prior to administration up to 10 hours post-dosing. The patency of the catheters was maintained by flushing with a small volume of heparinised saline (1-2 IU/mL) after each blood sample was withdrawn. Blood samples at 24 h were taken by venepuncture. Plasma was separated by centrifugation and aliquots of each plasma sample were transferred into eppendorf tubes and store at −80° C. prior to analysis by LC-MS-MS.

The conditions of data set [2]: cited from earlier work.
Data set [3] can be described thus: Pharmacokinetic study in rats, testosterone plasma concentrations after oral gavage. The following applies: testosterone in plasma, oral gavage.
Where [4] appears, read: conscious carotid artery cannulated SD female rats, normalized to 2 mg/kg equivalent testosterone dose.

Bounds are passed on as bounds.

For orientation: Cmax means the peak of the concentration-time curve. The Tmax is the time at which the peak concentration occurs. With `CCCCCCCCCCC(=O)O[C@H]1CC[C@H]2[C@@H]3CCC4=CC(=O)CC[C@]4(C)[C@H]3CC[C@]12C` [TU, testosterone undecanoate, reference compound], the “AUC0-24 h fold increase compared with TU group” value is reported as 1 fold in data set [1] (greyhound dogs, dose-normalized) and 1.0 fold in data set [3] (SD female rats, dose-normalized). Further, the Cmax in data set [1] (oral capsules, conscious greyhound dogs, normalized to 2 mg/kg equivalent testosterone dose, TU as Andriol Testocaps, Compound 13 in SEDDS) was found to be 75.4 ± 12.8 nM; in data set [3] (setting [4]), 5.6 ± 0.5 nM. The Tmax in data set [1] (oral capsules, greyhound dogs) is reported as 1.8 ± 0.1 h; in data set [3] (conscious carotid artery cannulated SD female rats), 1.5 ± 0.0 h. In addition, the AUC0-24 h is 0.1411 ± 0.0221 µM·h in data set [1] (oral capsules, greyhound dogs, normalized to 2 mg/kg equivalent testosterone dose) and 0.0068 ± 0.0004 µM·h in data set [3] (setting [4]). In data set [2], the “bioavailability of testosterone after oral administration of the undecanoate ester” value is on record as less than 5%. Besides, under “anaesthetised, mesenteric lymph-duct cannulated female SD rats, intraduodenal infusion 0-2 h, cumulative over 8 h”, the “Transport of total TST derivatives in lymph (% of dose)” value is listed as 1.9 ± 0.3 % of dose. The “Fold increase (compared with control group dosed with TU)” value (lymphatic transport of total TST derivatives, female SD rats, intraduodenal infusion) stood at 1.0 fold.
